Results reported in ChEMBL document CHEMBL5303573, “Mapping human microbiome drug metabolism by gut bacteria and their genes” (Nature, 2019).

Test: The drug is tested on Bifidobacterium ruminantium strain: fecal isolate for biotransformation. The drug concentrations were measured before and after a 12-h incubation by liquid-chromatography-coupled mass spectrometry (LC–MS)
Settings: 2 µM

SMILES | Bacterial Biotransformation
CN[C@H]1CC[C@@H](c2ccc(Cl)c(Cl)c2)c2ccccc21 [SERTRALINE] | Compound NOT metabolized
NC(CO)(CO)CO.O=C(c1ccccc1)c1ccc2n1CCC2C(=O)O (centres undefined) [KETOROLAC TROMETHAMINE] | Compound NOT metabolized
CS(=O)(=O)O.OC(CCN1CCCCC1)(c1ccccc1)c1ccccc1 [PRIDINOL METHANESULFONATE] | Compound NOT metabolized
O=c1n(CCCN2CCN(c3cccc(Cl)c3)CC2)nc2ccccn12 [TRAZODONE] | Compound NOT metabolized

Test: The drug is tested on Alistipes indistinctus strain: DSM22520 for biotransformation. The drug concentrations were measured before and after a 12-h incubation by liquid-chromatography-coupled mass spectrometry (LC–MS)
Settings: 2 µM

SMILES | Bacterial Biotransformation
CN[C@H]1CC[C@@H](c2ccc(Cl)c(Cl)c2)c2ccccc21 [SERTRALINE] | Compound NOT metabolized
NC(CO)(CO)CO.O=C(c1ccccc1)c1ccc2n1CCC2C(=O)O (centres undefined) [KETOROLAC TROMETHAMINE] | Compound NOT metabolized

Test: The drug is tested on Bacteroides fragilis strain: HMW615 for biotransformation. The drug concentrations were measured before and after a 12-h incubation by liquid-chromatography-coupled mass spectrometry (LC–MS)
Settings: 2 µM

SMILES | Bacterial Biotransformation
CS(=O)(=O)O.OC(CCN1CCCCC1)(c1ccccc1)c1ccccc1 [PRIDINOL METHANESULFONATE] | Compound NOT metabolized
O=c1n(CCCN2CCN(c3cccc(Cl)c3)CC2)nc2ccccn12 [TRAZODONE] | Compound NOT metabolized

Test: The drug is tested on Bacteroides uniformis strain: ATCC8492 for biotransformation. The drug concentrations were measured before and after a 12-h incubation by liquid-chromatography-coupled mass spectrometry (LC–MS)
Settings: 2 µM

SMILES | Bacterial Biotransformation
CN[C@H]1CC[C@@H](c2ccc(Cl)c(Cl)c2)c2ccccc21 [SERTRALINE] | Compound NOT metabolized
NC(CO)(CO)CO.O=C(c1ccccc1)c1ccc2n1CCC2C(=O)O (centres undefined) [KETOROLAC TROMETHAMINE] | Compound metabolized

Test: The drug is tested on Bacteroides vulgatus strain: ATCC8482 for biotransformation. The drug concentrations were measured before and after a 12-h incubation by liquid-chromatography-coupled mass spectrometry (LC–MS)
Settings: phocaeicola vulgatus, 2 µM

SMILES | Bacterial Biotransformation
CN[C@H]1CC[C@@H](c2ccc(Cl)c(Cl)c2)c2ccccc21 [SERTRALINE] | Compound NOT metabolized
NC(CO)(CO)CO.O=C(c1ccccc1)c1ccc2n1CCC2C(=O)O (centres undefined) [KETOROLAC TROMETHAMINE] | Compound metabolized
CS(=O)(=O)O.OC(CCN1CCCCC1)(c1ccccc1)c1ccccc1 [PRIDINOL METHANESULFONATE] | Compound NOT metabolized
O=c1n(CCCN2CCN(c3cccc(Cl)c3)CC2)nc2ccccn12 [TRAZODONE] | Compound NOT metabolized

Test: The drug is tested on Bacteroides xylanisolvens strain: DSM18836 for biotransformation. The drug concentrations were measured before and after a 12-h incubation by liquid-chromatography-coupled mass spectrometry (LC–MS)
Settings: 2 µM

SMILES | Bacterial Biotransformation
NC(CO)(CO)CO.O=C(c1ccccc1)c1ccc2n1CCC2C(=O)O (centres undefined) [KETOROLAC TROMETHAMINE] | Compound metabolized
CS(=O)(=O)O.OC(CCN1CCCCC1)(c1ccccc1)c1ccccc1 [PRIDINOL METHANESULFONATE] | Compound NOT metabolized
O=c1n(CCCN2CCN(c3cccc(Cl)c3)CC2)nc2ccccn12 [TRAZODONE] | Compound NOT metabolized

Test: The drug is tested on Odoribacter splanchnicus strain: fecal isolate for biotransformation. The drug concentrations were measured before and after a 12-h incubation by liquid-chromatography-coupled mass spectrometry (LC–MS)
Settings: 2 µM

SMILES | Bacterial Biotransformation
CN[C@H]1CC[C@@H](c2ccc(Cl)c(Cl)c2)c2ccccc21 [SERTRALINE] | Compound NOT metabolized
NC(CO)(CO)CO.O=C(c1ccccc1)c1ccc2n1CCC2C(=O)O (centres undefined) [KETOROLAC TROMETHAMINE] | Compound NOT metabolized
CS(=O)(=O)O.OC(CCN1CCCCC1)(c1ccccc1)c1ccccc1 [PRIDINOL METHANESULFONATE] | Compound NOT metabolized

Test: The drug is tested on Clostridium sporogenes strain: ATCC15579 for biotransformation. The drug concentrations were measured before and after a 12-h incubation by liquid-chromatography-coupled mass spectrometry (LC–MS)
Settings: 2 µM

SMILES | Bacterial Biotransformation
CN[C@H]1CC[C@@H](c2ccc(Cl)c(Cl)c2)c2ccccc21 [SERTRALINE] | Compound NOT metabolized
NC(CO)(CO)CO.O=C(c1ccccc1)c1ccc2n1CCC2C(=O)O (centres undefined) [KETOROLAC TROMETHAMINE] | Compound NOT metabolized
CS(=O)(=O)O.OC(CCN1CCCCC1)(c1ccccc1)c1ccccc1 [PRIDINOL METHANESULFONATE] | Compound NOT metabolized
O=c1n(CCCN2CCN(c3cccc(Cl)c3)CC2)nc2ccccn12 [TRAZODONE] | Compound NOT metabolized

Test: The drug is tested on Coprococcus comes strain: ATCC27758 for biotransformation. The drug concentrations were measured before and after a 12-h incubation by liquid-chromatography-coupled mass spectrometry (LC–MS)
Format: ADME
Parameters: dose 2 uM, timepoint 0 vs 12 hours
Settings: 2 µM

SMILES | Bacterial Biotransformation
CS(=O)(=O)O.OC(CCN1CCCCC1)(c1ccccc1)c1ccccc1 [PRIDINOL METHANESULFONATE] | Compound NOT metabolized
O=c1n(CCCN2CCN(c3cccc(Cl)c3)CC2)nc2ccccn12 [TRAZODONE] | Compound NOT metabolized

Test: The drug is tested on Dorea formicigenerans strain: ATCC27755 for biotransformation. The drug concentrations were measured before and after a 12-h incubation by liquid-chromatography-coupled mass spectrometry (LC–MS)
Settings: 2 µM

SMILES | Bacterial Biotransformation
CN[C@H]1CC[C@@H](c2ccc(Cl)c(Cl)c2)c2ccccc21 [SERTRALINE] | Compound NOT metabolized
NC(CO)(CO)CO.O=C(c1ccccc1)c1ccc2n1CCC2C(=O)O (centres undefined) [KETOROLAC TROMETHAMINE] | Compound NOT metabolized
CS(=O)(=O)O.OC(CCN1CCCCC1)(c1ccccc1)c1ccccc1 [PRIDINOL METHANESULFONATE] | Compound NOT metabolized
O=c1n(CCCN2CCN(c3cccc(Cl)c3)CC2)nc2ccccn12 [TRAZODONE] | Compound NOT metabolized

Test: The drug is tested on Enterococcus faecalis strain: V583 for biotransformation. The drug concentrations were measured before and after a 12-h incubation by liquid-chromatography-coupled mass spectrometry (LC–MS)
Settings: 2 µM

SMILES | Bacterial Biotransformation
CN[C@H]1CC[C@@H](c2ccc(Cl)c(Cl)c2)c2ccccc21 [SERTRALINE] | Compound NOT metabolized
NC(CO)(CO)CO.O=C(c1ccccc1)c1ccc2n1CCC2C(=O)O (centres undefined) [KETOROLAC TROMETHAMINE] | Compound NOT metabolized
O=c1n(CCCN2CCN(c3cccc(Cl)c3)CC2)nc2ccccn12 [TRAZODONE] | Compound NOT metabolized

Test: The drug is tested on Eubacterium ventriosum strain: ATCC27560 for biotransformation. The drug concentrations were measured before and after a 12-h incubation by liquid-chromatography-coupled mass spectrometry (LC–MS)
Format: ADME
Parameters: dose 2 uM, timepoint 0 vs 12 hours
Settings: 2 µM

SMILES | Bacterial Biotransformation
NC(CO)(CO)CO.O=C(c1ccccc1)c1ccc2n1CCC2C(=O)O (centres undefined) [KETOROLAC TROMETHAMINE] | Compound NOT metabolized
CS(=O)(=O)O.OC(CCN1CCCCC1)(c1ccccc1)c1ccccc1 [PRIDINOL METHANESULFONATE] | Compound NOT metabolized
O=c1n(CCCN2CCN(c3cccc(Cl)c3)CC2)nc2ccccn12 [TRAZODONE] | Compound NOT metabolized

Test: The drug is tested on Ruminococcus lactaris strain: ATCC29176 for biotransformation. The drug concentrations were measured before and after a 12-h incubation by liquid-chromatography-coupled mass spectrometry (LC–MS)
Settings: 2 µM

SMILES | Bacterial Biotransformation
CN[C@H]1CC[C@@H](c2ccc(Cl)c(Cl)c2)c2ccccc21 [SERTRALINE] | Compound NOT metabolized
NC(CO)(CO)CO.O=C(c1ccccc1)c1ccc2n1CCC2C(=O)O (centres undefined) [KETOROLAC TROMETHAMINE] | Compound NOT metabolized
CS(=O)(=O)O.OC(CCN1CCCCC1)(c1ccccc1)c1ccccc1 [PRIDINOL METHANESULFONATE] | Compound NOT metabolized
O=c1n(CCCN2CCN(c3cccc(Cl)c3)CC2)nc2ccccn12 [TRAZODONE] | Compound NOT metabolized

Test: The drug is tested on Ruminococcus torques strain: ATCC27756 for biotransformation. The drug concentrations were measured before and after a 12-h incubation by liquid-chromatography-coupled mass spectrometry (LC–MS)
Format: ADME
Parameters: dose 2 uM, timepoint 0 vs 12 hours
Settings: 2 µM

SMILES | Bacterial Biotransformation
CN[C@H]1CC[C@@H](c2ccc(Cl)c(Cl)c2)c2ccccc21 [SERTRALINE] | Compound NOT metabolized
CS(=O)(=O)O.OC(CCN1CCCCC1)(c1ccccc1)c1ccccc1 [PRIDINOL METHANESULFONATE] | Compound NOT metabolized
O=c1n(CCCN2CCN(c3cccc(Cl)c3)CC2)nc2ccccn12 [TRAZODONE] | Compound NOT metabolized

Test: The drug is tested on Providencia rettgeri strain: DSM1131 for biotransformation. The drug concentrations were measured before and after a 12-h incubation by liquid-chromatography-coupled mass spectrometry (LC–MS)
Format: ADME
Parameters: dose 2 uM, timepoint 0 vs 12 hours
Settings: 2 µM

SMILES | Bacterial Biotransformation
CN[C@H]1CC[C@@H](c2ccc(Cl)c(Cl)c2)c2ccccc21 [SERTRALINE] | Compound NOT metabolized
NC(CO)(CO)CO.O=C(c1ccccc1)c1ccc2n1CCC2C(=O)O (centres undefined) [KETOROLAC TROMETHAMINE] | Compound NOT metabolized
CS(=O)(=O)O.OC(CCN1CCCCC1)(c1ccccc1)c1ccccc1 [PRIDINOL METHANESULFONATE] | Compound NOT metabolized
O=c1n(CCCN2CCN(c3cccc(Cl)c3)CC2)nc2ccccn12 [TRAZODONE] | Compound NOT metabolized

Settings: segatella copri, 12 h, 2 µM
Description: The drug is tested on Prevotella copri strain: DSM18205 for biotransformation. The drug concentrations were measured before and after a 12-h incubation by liquid-chromatography-coupled mass spectrometry (LC–MS)

SMILES | Bacterial Biotransformation
CN[C@H]1CC[C@@H](c2ccc(Cl)c(Cl)c2)c2ccccc21 [SERTRALINE] | Compound NOT metabolized
NC(CO)(CO)CO.O=C(c1ccccc1)c1ccc2n1CCC2C(=O)O (centres undefined) [KETOROLAC TROMETHAMINE] | Compound metabolized
CS(=O)(=O)O.OC(CCN1CCCCC1)(c1ccccc1)c1ccccc1 [PRIDINOL METHANESULFONATE] | Compound NOT metabolized
O=c1n(CCCN2CCN(c3cccc(Cl)c3)CC2)nc2ccccn12 [TRAZODONE] | Compound NOT metabolized

Settings: anaerostipes sp., 12 h, 2 µM
Description: The drug is tested on Anaerostipes sp. strain: fecal isolate for biotransformation. The drug concentrations were measured before and after a 12-h incubation by liquid-chromatography-coupled mass spectrometry (LC–MS)

SMILES | Bacterial Biotransformation
CN[C@H]1CC[C@@H](c2ccc(Cl)c(Cl)c2)c2ccccc21 [SERTRALINE] | Compound NOT metabolized
NC(CO)(CO)CO.O=C(c1ccccc1)c1ccc2n1CCC2C(=O)O (centres undefined) [KETOROLAC TROMETHAMINE] | Compound NOT metabolized
CS(=O)(=O)O.OC(CCN1CCCCC1)(c1ccccc1)c1ccccc1 [PRIDINOL METHANESULFONATE] | Compound NOT metabolized
O=c1n(CCCN2CCN(c3cccc(Cl)c3)CC2)nc2ccccn12 [TRAZODONE] | Compound NOT metabolized

Settings: roseburia intestinalis, 12 h, 2 µM
Description: The drug is tested on Roseburia intestinalis strain: L1-82 for biotransformation. The drug concentrations were measured before and after a 12-h incubation by liquid-chromatography-coupled mass spectrometry (LC–MS)

SMILES | Bacterial Biotransformation
CS(=O)(=O)O.OC(CCN1CCCCC1)(c1ccccc1)c1ccccc1 [PRIDINOL METHANESULFONATE] | Compound NOT metabolized
O=c1n(CCCN2CCN(c3cccc(Cl)c3)CC2)nc2ccccn12 [TRAZODONE] | Compound NOT metabolized

Settings: akkermansia muciniphila, 12 h, 2 µM
Description: The drug is tested on Akkermansia muciniphila strain: ATCC BAA-835 for biotransformation. The drug concentrations were measured before and after a 12-h incubation by liquid-chromatography-coupled mass spectrometry (LC–MS)

SMILES | Bacterial Biotransformation
CS(=O)(=O)O.OC(CCN1CCCCC1)(c1ccccc1)c1ccccc1 [PRIDINOL METHANESULFONATE] | Compound NOT metabolized
O=c1n(CCCN2CCN(c3cccc(Cl)c3)CC2)nc2ccccn12 [TRAZODONE] | Compound NOT metabolized
